In patent US20240150360A1 (THE REGENTS OF THE UNIVERSITY OF MICHIGAN, priority 2021, published 2024):

Assays:
HL60 = experiment: Cell growth inhibition in HL60; type: cell-based; details: Homo sapiens, HL-60, HL60 cells; read-out: Cell Growth Inhibition (IC50) HL60
22Rv1 cells = experiment: Cell growth inhibition assay (CellTiter-Glo) in 22Rv1; type: cell-based, human; details: Homo sapiens, 22Rv1, 96 h, 22Rv1 cells, 96 h incubation; read-out: Cell Growth Inhibition (IC50) 22Rv1
Description: Biological Assays. CBP/p300 degradation activity and cell growth inhibition were evaluated in the human prostate cancer cell line 22Rv1 (ATCC© CRL-2505™) purchased from the American Type Culture Collection (ATCC), Manassas, VA, and maintained and cultured in Dulbecco's Modified Eagle's medium (DMEM) containing 10% fetal bovine serum, 1 unit/ml of penicillin and 1 μg/ml of streptomycin. Cells with 3-8 passages after purchase were used in experiments.
Cell Growth Inhibition Assay Protocol. 22RV1 cells were seeded at a concentration of 4000 cells/well in 100 μl culture medium and 2 μl of test compound (final concentration start from 10 μM and 3 times dilution) into 96 well microplates (Corning 3903). The cell cultures were incubated for 96 h at +37° C. and 5% CO2. The plate and its contents were equilibrated to room temperature for approximately 30 minutes. 100 μl of CellTiter-Glo® 2.0 Reagent equal to the volume of cell culture medium present was added in each well. The contents were mixed for 2 minutes on an orbital shaker. The plate was allowed to incubate at room temperature for 10 minutes. The luminescence was recorded. The data was analyzed by Prism GraphPad 8.

CBP = target: T1, CBP (Homo sapiens, UniProt Q92793); experiment: CBP degradation in 22Rv1 cells (5 h); type: cell-based; details: 22Rv1 cells, 5 h; for Dmax: 22Rv1, 5 h, read-out: CBP Degradation (22Rv1, 5 h) DCmax
T1 construct: endogenous in cells; host or cells: 22Rv1 (ATCC CRL-2505) human prostate cancer cells
Text: Biological Assays. […] Cells with 3-8 passages after purchase were used in experiments.

T1 sequence (Q92793 whole entry): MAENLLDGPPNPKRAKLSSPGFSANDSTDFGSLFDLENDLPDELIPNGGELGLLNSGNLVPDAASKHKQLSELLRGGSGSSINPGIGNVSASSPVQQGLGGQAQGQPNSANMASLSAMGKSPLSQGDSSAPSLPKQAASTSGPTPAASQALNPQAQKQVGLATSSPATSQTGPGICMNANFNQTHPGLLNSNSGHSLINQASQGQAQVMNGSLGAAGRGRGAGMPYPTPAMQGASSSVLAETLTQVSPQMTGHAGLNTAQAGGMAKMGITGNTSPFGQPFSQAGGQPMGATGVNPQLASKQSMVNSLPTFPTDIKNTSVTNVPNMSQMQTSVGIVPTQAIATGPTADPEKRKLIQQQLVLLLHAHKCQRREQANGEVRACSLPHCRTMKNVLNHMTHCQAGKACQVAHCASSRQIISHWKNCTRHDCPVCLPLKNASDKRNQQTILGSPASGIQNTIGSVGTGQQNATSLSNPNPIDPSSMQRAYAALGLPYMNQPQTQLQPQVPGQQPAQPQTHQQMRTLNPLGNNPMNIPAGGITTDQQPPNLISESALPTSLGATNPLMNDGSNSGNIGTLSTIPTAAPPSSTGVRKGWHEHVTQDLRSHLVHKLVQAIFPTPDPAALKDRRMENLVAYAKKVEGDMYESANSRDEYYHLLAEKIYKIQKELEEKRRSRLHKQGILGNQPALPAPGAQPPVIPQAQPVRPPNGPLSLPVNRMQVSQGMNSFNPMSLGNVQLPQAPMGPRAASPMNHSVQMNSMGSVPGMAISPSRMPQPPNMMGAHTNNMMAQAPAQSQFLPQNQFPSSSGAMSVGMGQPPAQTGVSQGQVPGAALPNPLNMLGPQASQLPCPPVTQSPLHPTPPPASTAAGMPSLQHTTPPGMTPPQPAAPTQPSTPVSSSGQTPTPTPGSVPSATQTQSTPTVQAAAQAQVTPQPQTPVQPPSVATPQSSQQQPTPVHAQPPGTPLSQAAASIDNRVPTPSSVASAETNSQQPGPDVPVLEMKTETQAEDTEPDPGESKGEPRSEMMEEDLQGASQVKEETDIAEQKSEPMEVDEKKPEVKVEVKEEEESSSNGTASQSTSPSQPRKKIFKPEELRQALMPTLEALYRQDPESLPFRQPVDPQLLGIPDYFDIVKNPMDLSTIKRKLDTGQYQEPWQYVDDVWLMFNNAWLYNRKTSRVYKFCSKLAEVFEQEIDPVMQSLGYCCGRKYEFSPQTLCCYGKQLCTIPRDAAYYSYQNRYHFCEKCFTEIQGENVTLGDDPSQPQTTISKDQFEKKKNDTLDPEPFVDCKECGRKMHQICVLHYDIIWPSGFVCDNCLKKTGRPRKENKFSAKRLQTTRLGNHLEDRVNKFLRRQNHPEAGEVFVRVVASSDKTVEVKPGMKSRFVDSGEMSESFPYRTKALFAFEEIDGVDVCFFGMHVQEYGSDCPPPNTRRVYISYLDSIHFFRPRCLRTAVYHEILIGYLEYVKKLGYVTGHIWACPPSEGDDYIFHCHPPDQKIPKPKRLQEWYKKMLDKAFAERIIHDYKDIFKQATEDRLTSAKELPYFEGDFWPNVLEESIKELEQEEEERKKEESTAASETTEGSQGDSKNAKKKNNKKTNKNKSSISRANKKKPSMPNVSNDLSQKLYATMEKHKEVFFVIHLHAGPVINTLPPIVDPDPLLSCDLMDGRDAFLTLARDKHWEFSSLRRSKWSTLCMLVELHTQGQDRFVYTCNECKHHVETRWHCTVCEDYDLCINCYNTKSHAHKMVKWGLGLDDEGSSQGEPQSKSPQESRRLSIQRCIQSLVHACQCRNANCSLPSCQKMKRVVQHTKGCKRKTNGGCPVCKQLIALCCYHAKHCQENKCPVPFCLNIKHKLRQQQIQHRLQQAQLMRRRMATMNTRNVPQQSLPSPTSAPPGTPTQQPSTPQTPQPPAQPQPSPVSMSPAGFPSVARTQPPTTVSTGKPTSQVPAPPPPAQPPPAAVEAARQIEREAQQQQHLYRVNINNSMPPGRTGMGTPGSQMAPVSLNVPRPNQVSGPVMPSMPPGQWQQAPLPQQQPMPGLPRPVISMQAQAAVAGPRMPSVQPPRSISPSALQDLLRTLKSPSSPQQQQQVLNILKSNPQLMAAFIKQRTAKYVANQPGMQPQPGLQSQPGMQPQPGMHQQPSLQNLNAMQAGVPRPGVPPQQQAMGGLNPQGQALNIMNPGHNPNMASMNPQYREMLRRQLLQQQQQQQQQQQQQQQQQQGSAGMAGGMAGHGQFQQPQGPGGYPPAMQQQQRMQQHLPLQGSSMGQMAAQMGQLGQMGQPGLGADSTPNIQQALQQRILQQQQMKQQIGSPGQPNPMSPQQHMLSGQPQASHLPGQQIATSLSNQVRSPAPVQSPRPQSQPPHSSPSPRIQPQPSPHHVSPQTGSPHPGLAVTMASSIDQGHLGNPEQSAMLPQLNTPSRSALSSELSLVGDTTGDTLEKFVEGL

Row | IC50 (HL60) [nM] | IC50 (22Rv1 cells) [nM] | Dmax (CBP) [%] | DC50 (CBP) [nM] | Structure (SMILES)
1 | < 100 | < 100 | > 90 | < 10 | CC(=O)N1CCc2c(c(N3CCCc4cc(-c5cnn(C)c5)c(C(F)F)cc43)nn2C2CCN(C(=O)CN3CCc4cc5c(cc4C3)C(=O)N(C3CCC(=O)NC3=O)C5=O)CC2)C1 (centres unmarked) [CP-001, 6-(2-(4-(5-acetyl-3-(7-(difluoromethyl)-6-(1-methyl-1H-pyrazol-4-yl)-3,4-dihydroquinolin-1(2H)-yl)-4,5,6,7-tetrahydro-1H-pyrazolo[4,3-c]pyridin-1-yl)piperidin-1-yl)-2-oxoethyl)-2-(2,6-dioxopiperidin-3-yl)-5,6,7,8-tetrahydro-1H-pyrrolo[3,4-g]isoquinoline-1,3(2H)-dione]
2 | < 1000 | < 10000 | > 90 | < 10 | CC(=O)N1CCc2c(c(N3CCCc4cc(-c5cnn(C)c5)c(C(F)F)cc43)nn2C2CCN(CC(=O)N3CCc4cc5c(cc4C3)C(=O)N(C3CCC(=O)NC3=O)C5=O)CC2)C1 (centres unmarked) [CP-002, 6-(2-(4-(5-acetyl-3-(7-(difluoromethyl)-6-(1-methyl-1H-pyrazol-4-yl)-3,4-dihydroquinolin-1(2H)-yl)-4,5,6,7-tetrahydro-1H-pyrazolo[4,3-c]pyridin-1-yl)piperidin-1-yl)acetyl)-2-(2,6-dioxopiperidin-3-yl)-5,6,7,8-tetrahydro-1H-pyrrolo[3,4-g]isoquinoline-1,3(2H)-dione]
3 | < 1000 | < 10000 | > 50 | < 100 | CC(=O)N1CCc2c(c(N3CCCc4cc(-c5cnn(C)c5)c(C(F)F)cc43)nn2C2CCN(C(=O)CCN3CCc4cc5c(cc4C3)C(=O)N(C3CCC(=O)NC3=O)C5=O)CC2)C1 (centres unmarked) [CP-003, 6-(3-(4-(5-acetyl-3-(7-(difluoromethyl)-6-(1-methyl-1H-pyrazol-4-yl)-3,4-dihydroquinolin-1(2H)-yl)-4,5,6,7-tetrahydro-1H-pyrazolo[4,3-c]pyridin-1-yl)piperidin-1-yl)-3-oxopropyl)-2-(2,6-dioxopiperidin-3-yl)-5,6,7,8-tetrahydro-1H-pyrrolo[3,4-g]isoquinoline-1,3(2H)-dione]
4 | < 1000 | < 1000 | > 70 | < 10 | CC(=O)N1CCc2c(c(N3CCCc4cc(-c5cnn(C)c5)c(C(F)F)cc43)nn2C2CCN(C(=O)CCCN3CCc4cc5c(cc4C3)C(=O)N(C3CCC(=O)NC3=O)C5=O)CC2)C1 (centres unmarked) [CP-004, 6-(4-(4-(5-acetyl-3-(7-(difluoromethyl)-6-(1-methyl-1H-pyrazol-4-yl)-3,4-dihydroquinolin-1(2H)-yl)-4,5,6,7-tetrahydro-1H-pyrazolo[4,3-c]pyridin-1-yl)piperidin-1-yl)-4-oxobutyl)-2-(2,6-dioxopiperidin-3-yl)-5,6,7,8-tetrahydro-1H-pyrrolo[3,4-g]isoquinoline-1,3(2H)-dione]
5 | < 1000 | < 10000 | > 70 | < 10 | CC(=O)N1CCc2c(c(N3CCCc4cc(-c5cnn(C)c5)c(C(F)F)cc43)nn2C2CCN(CC(=O)N3Cc4cc5c(cc4C3)C(=O)N(C3CCC(=O)NC3=O)C5=O)CC2)C1 (centres unmarked) [CP-006, 6-(2-(4-(5-acetyl-3-(7-(difluoromethyl)-6-(1-methyl-1H-pyrazol-4-yl)-3,4-dihydroquinolin-1(2H)-yl)-4,5,6,7-tetrahydro-1H-pyrazolo[4,3-c]pyridin-1-yl)piperidin-1-yl)acetyl)-2-(2,6-dioxopiperidin-3-yl)-6,7-dihydropyrrolo[3,4-f]isoindole-1,3(2H,5H)-dione]
6 | < 1000 | < 1000 | > 70 | < 100 | CC(=O)N1CCc2c(c(N3CCCc4cc(-c5cnn(C)c5)c(C(F)F)cc43)nn2C2CCN(C(=O)CCN3Cc4cc5c(cc4C3)C(=O)N(C3CCC(=O)NC3=O)C5=O)CC2)C1 (centres unmarked) [CP-007, 6-(3-(4-(5-acetyl-3-(7-(difluoromethyl)-6-(1-methyl-1H-pyrazol-4-yl)-3,4-dihydroquinolin-1(2H)-yl)-4,5,6,7-tetrahydro-1H-pyrazolo[4,3-c]pyridin-1-yl)piperidin-1-yl)-3-oxopropyl)-2-(2,6-dioxopiperidin-3-yl)-6,7-dihydropyrrolo[3,4-f]isoindole-1,3(2H,5H)-dione]
7 | < 100 | < 100 | > 70 | < 10 | CC(=O)N1CCc2c(c(N3CCCc4cc(-c5cnn(C)c5)c(C(F)F)cc43)nn2C2CCN(C(=O)CCCN3Cc4cc5c(cc4C3)C(=O)N(C3CCC(=O)NC3=O)C5=O)CC2)C1 (centres unmarked) [CP-008, 6-(4-(4-(5-acetyl-3-(7-(difluoromethyl)-6-(1-methyl-1H-pyrazol-4-yl)-3,4-dihydroquinolin-1(2H)-yl)-4,5,6,7-tetrahydro-1H-pyrazolo[4,3-c]pyridin-1-yl)piperidin-1-yl)-4-oxobutyl)-2-(2,6-dioxopiperidin-3-yl)-6,7-dihydropyrrolo[3,4-f]isoindole-1,3(2H,5H)-dione]
8 | < 100 | < 1000 | > 90 | < 10 | CC(=O)N1CCc2c(c(N3CCCc4ccc(C(F)F)cc43)nn2C2CCN(C(=O)CN3CCc4cc5c(cc4C3)C(=O)N(C3CCC(=O)NC3=O)C5=O)CC2)C1 (centres unmarked) [CP-009, 6-(2-(4-(5-acetyl-3-(7-(difluoromethyl)-3,4-dihydroquinolin-1(2H)-yl)-4,5,6,7-tetrahydro-1H-pyrazolo[4,3-c]pyridin-1-yl)piperidin-1-yl)-2-oxoethyl)-2-(2,6-dioxopiperidin-3-yl)-5,6,7,8-tetrahydro-1H-pyrrolo[3,4-g]isoquinoline-1,3(2H)-dione]
9 | < 1000 | > 10000 | > 70 | < 100 | CC(=O)N1CCc2c(c(N3CCCc4ccc(C(F)F)cc43)nn2C2CCN(C(=O)CN3Cc4cc5c(cc4C3)C(=O)N(C3CCC(=O)NC3=O)C5=O)CC2)C1 (centres unmarked) [CP-010, 6-(2-(4-(5-acetyl-3-(7-(difluoromethyl)-3,4-dihydroquinolin-1(2H)-yl)-4,5,6,7-tetrahydro-1H-pyrazolo[4,3-c]pyridin-1-yl)piperidin-1-yl)-2-oxoethyl)-2-(2,6-dioxopiperidin-3-yl)-6,7-dihydropyrrolo[3,4-f]isoindole-1,3(2H,5H)-dione]
10 | < 1000 | < 10000 | < 50 | > 1000 | CC(=O)N1CCc2c(c(N3CCCc4cc(-c5cnn(C)c5)c(C(F)F)cc43)nn2C2CCC(CC(=O)N3Cc4cc5c(cc4C3)C(=O)N(C3CCC(=O)NC3=O)C5=O)CC2)C1 (centres unmarked) [CP-027, 6-(2-(4-(5-acetyl-3-(7-(difluoromethyl)-6-(1-methyl-1H-pyrazol-4-yl)-3,4-dihydroquinolin-1(2H)-yl)-4,5,6,7-tetrahydro-1H-pyrazolo[4,3-c]pyridin-1-yl)cyclohexyl)acetyl)-2-(2,6-dioxopiperidin-3-yl)-6,7-dihydropyrrolo[3,4-f]isoindole-1,3(2H,5H)-dione]
11 | < 100 | < 1000 | > 50 | < 10 | CC(=O)N1CCc2c(c(N3CCCc4cc(-c5cnn(C)c5)c(C(F)F)cc43)nn2C2CCC(CC(=O)N3CCc4cc5c(cc4C3)C(=O)N(C3CCC(=O)NC3=O)C5=O)CC2)C1 (centres unmarked) [CP-028, 6-(2-(4-(5-acetyl-3-(7-(difluoromethyl)-6-(1-methyl-1H-pyrazol-4-yl)-3,4-dihydroquinolin-1(2H)-yl)-4,5,6,7-tetrahydro-1H-pyrazolo[4,3-c]pyridin-1-yl)cyclohexyl)acetyl)-2-(2,6-dioxopiperidin-3-yl)-5,6,7,8-tetrahydro-1H-pyrrolo[3,4-g]isoquinoline-1,3(2H)-dione]
